According to patent publication US20240182431A1, “NEW CONTRAST AGENT FOR USE IN MAGNETIC RESONANCE IMAGING” (Bayer Aktiengesellschaft, priority 2021, published 2024):

Assay: Partition coefficient (logP butanol/buffer)
Assay type: physicochemical
[1] = 1-butanol / 50 mM Tris-HCl, pH 7.4, room temperature

Log P (butanol/buffer) [1]	Log P (butanol/buffer) (pH 7.4)	Structure (SMILES)
−1.03		CCOCCOCCOc1ccc(CCC[C@@H](C(=O)O)N2CCN(C(CO)C(=O)[O-])CCN(C(CO)C(=O)[O-])CCN(C(CO)C(=O)[O-])CC2)cc1.[Gd+3] (mixture of isomers) [Example 21, gadolinium-2,2′,2″-{10-[(1S)-1-carboxy-4-{4-[2-(2-ethoxyethoxy)ethoxy]phenyl}butyl]-1,4,7,10-tetraazacyclododecane-1,4,7-triyl}tris(3-hydroxypropanoate)]
−0.55		O=C([O-])CN1CCN(C(Cc2ccc(OCC(F)(F)C(F)F)cc2)C(=O)O)CCN(CC(=O)[O-])CCN([C@@H](CO)C(=O)[O-])CC1.[Gd+3] (mixture of isomers) [Example 33, gadolinium (2S)-2-[4,10-bis(carboxylatomethyl)-7-{1-carboxy-2-[4-(2,2,3,3-tetrafluoropropoxy)phenyl]ethyl}-1,4,7,10-tetraazacyclododecan-1-yl]-3-hydroxypropanoate]
	−1.08	CCOCCOCCOc1ccc(CCC[C@@H](C(=O)O)N2CCN(C(CCO)C(=O)[O-])CCN(C(CCO)C(=O)[O-])CCN(C(CCO)C(=O)[O-])CC2)cc1.[Gd+3] (mixture of isomers) [Example 36, gadolinium-2,2′-{4-[(1S)-1-carboxy-4-{4-[2-(2-ethoxyethoxy)ethoxy]phenyl}butyl]-10-[1-carboxylato-3-hydroxypropyl]-1,4,7,10-tetraazacyclododecane-1,7-diyl}bis(4-hydroxybutanoate)]

More lines, now with the values behind:

Structure (SMILES)	Log P (butanol/buffer) [1]	Log P (butanol/buffer) (pH 7.4)
CCOCCOCCOc1ccc(CC(C(=O)O)N2CCN(CC(=O)[O-])CCN(C(C)C(=O)[O-])CCN(CC(=O)[O-])CC2)cc1.[Gd+3] (single isomer, unassigned) [Example 5, gadolinium 2-[7-(1-carboxy-2-{4-[2-(2-ethoxyethoxy)ethoxy]phenyl}ethyl)-4,10-bis(carboxylatomethyl)-1,4,7,10-tetraazacyclododecan-1-yl]propanoate]	−1.52	
CCOCCOCCOc1ccc(CC(C(=O)O)N2CCN(CC(=O)[O-])CCN(C(C)C(=O)[O-])CCN(CC(=O)[O-])CC2)cc1.[Gd+3] (single isomer, unassigned) [Example 6, gadolinium 2-[7-(1-carboxy-2-{4-[2-(2-ethoxyethoxy)ethoxy]phenyl}ethyl)-4,10-bis(carboxylatomethyl)-1,4,7,10-tetraazacyclododecan-1-yl]propanoate]	−1.44	
CCOCCOc1ccc(CC(C(=O)O)N2CCN(CC(=O)[O-])CCN(C(CC)C(=O)[O-])CCN(CC(=O)[O-])CC2)cc1.[Gd+3] (single isomer, unassigned) [Example 7, gadolinium 2-[7-{1-carboxy-2-[4-(2-ethoxyethoxy)phenyl]ethyl}-4,10-bis(carboxylatomethyl)-1,4,7,10-tetraazacyclododecan-1-yl]butanoate]	−1.09	
CCOCCOc1ccc(CC(C(=O)O)N2CCN(CC(=O)[O-])CCN(C(CC)C(=O)[O-])CCN(CC(=O)[O-])CC2)cc1.[Gd+3] (single isomer, unassigned) [Example 8, gadolinium 2-[7-{1-carboxy-2-[4-(2-ethoxyethoxy)phenyl]ethyl}-4,10-bis(carboxylatomethyl)-1,4,7,10-tetraazacyclododecan-1-yl]butanoate]	−1.04	
CCOCCOCCOc1ccc(CC(C(=O)O)N2CCN(CC(=O)[O-])CCN(CC(=O)[O-])CCN(CC(=O)[O-])CC2)cc1.[Gd+3] (stereo not drawn) [Example 2, gadolinium 2,2′,2″-{10-[1-carboxy-2-{4-[2-(2-ethoxyethoxy)ethoxy]phenyl}ethyl]-1,4,7,10-tetraazacyclododecane-1,4,7-triyl}triacetate]	−1.63	
CCOCCOCCOc1ccc(C[C@@H](C(=O)O)N2CCN(CC(=O)[O-])CCN(CC(=O)[O-])CCN(CC(=O)[O-])CC2)cc1.[Gd+3] [Example 3, gadolinium 2,2′,2″-{10-[(1S)-1-carboxy-2-{4-[2-(2-ethoxyethoxy)ethoxy]phenyl}ethyl]-1,4,7,10-tetraazacyclododecane-1,4,7-triyl}triacetate]	−1.61	
